Laboratory results taken from ChEMBL document CHEMBL1132083, “Switching androgen receptor antagonists to agonists by modifying C-ring substituents on piperidino[3,2-g]quinolinone” (Bioorg Med Chem Lett, 1999).

Tests used:
[1] = molecular target: T1, Androgen receptor (Homo sapiens) (UniProt P10275); assay: Antagonistic activity against human androgen receptor (hAR); no data; format: functional
T1 sequence (whole entry): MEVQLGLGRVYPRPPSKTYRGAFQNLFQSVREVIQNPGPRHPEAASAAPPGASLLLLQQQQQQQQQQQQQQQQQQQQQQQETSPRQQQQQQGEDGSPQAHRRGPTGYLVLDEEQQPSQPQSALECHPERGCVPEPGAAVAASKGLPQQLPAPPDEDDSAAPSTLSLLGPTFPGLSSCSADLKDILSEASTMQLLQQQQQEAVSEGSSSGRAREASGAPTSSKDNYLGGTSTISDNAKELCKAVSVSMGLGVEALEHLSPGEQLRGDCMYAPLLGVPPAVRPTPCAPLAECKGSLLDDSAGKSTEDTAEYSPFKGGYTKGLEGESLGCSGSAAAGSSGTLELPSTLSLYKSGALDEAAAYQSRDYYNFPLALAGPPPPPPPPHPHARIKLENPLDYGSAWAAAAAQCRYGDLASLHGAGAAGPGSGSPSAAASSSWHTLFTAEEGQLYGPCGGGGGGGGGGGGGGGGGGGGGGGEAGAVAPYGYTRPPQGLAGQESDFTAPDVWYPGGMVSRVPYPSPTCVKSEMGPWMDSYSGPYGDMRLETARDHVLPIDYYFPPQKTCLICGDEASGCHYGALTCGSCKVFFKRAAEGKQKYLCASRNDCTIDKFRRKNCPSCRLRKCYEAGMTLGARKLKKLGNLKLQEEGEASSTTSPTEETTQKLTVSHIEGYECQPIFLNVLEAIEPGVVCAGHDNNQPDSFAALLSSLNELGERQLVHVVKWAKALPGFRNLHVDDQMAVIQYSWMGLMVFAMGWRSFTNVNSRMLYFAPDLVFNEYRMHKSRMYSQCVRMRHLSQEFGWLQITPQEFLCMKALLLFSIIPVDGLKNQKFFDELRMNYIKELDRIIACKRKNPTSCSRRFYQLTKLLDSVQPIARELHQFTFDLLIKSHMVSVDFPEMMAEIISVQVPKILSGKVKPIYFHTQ

Androgen receptor [2] = molecular target: T2, Androgen receptor (Homo sapiens, UniProt P10275); assay: Antagonistic activity against human androgen receptor (hAR) expressed in CV-1 cells; no data; format: functional, cell-based
T2 sequence (P10275 whole entry): T1 sequence (whole entry)

Androgen receptor [3] = molecular target: T2, Androgen receptor
Description: Binding affinity towards human androgen receptor (hAR), using dihydrotestosterone as radioligand for competitive binding assay

Androgen receptor [4] = molecular target: T2, Androgen receptor; remark: listed apart in the source
Description: (§1) Agonistic activity against human androgen receptor (hAR) expressed in CV-1 cell lines

Androgen receptor [5] = molecular target: T2, Androgen receptor; remark: listed apart in the source
Description: (§2) Antagonistic activity against human androgen receptor (hAR) expressed in CV-1 cell lines

Androgen receptor [6] = molecular target: T2, Androgen receptor; conditions: cv-1
Description: as §1

Androgen receptor [7] = molecular target: T2, Androgen receptor; conditions: cv-1; remark: listed apart in the source
Description: as §2

Work on `CC[C@H]1C[C@@H](C)Nc2cc3nc(O)cc(C(F)(F)F)c3cc21` yielded an Efficacy [1] of less than 20%, an IC50 (Androgen receptor [2]) of less than 10000 nM and a Ki (Androgen receptor [3]) of 23 nM. The EC50 (Androgen receptor [4]) was 66 nM.

With `CC[C@@H]1C[C@H](CC)c2cc3c(C(F)(F)F)cc(O)nc3cc2N1` the Efficacy [1] was less than 20%, the IC50 (Androgen receptor [2]) was less than 10000 nM and the Ki (Androgen receptor [3]) was 9 nM. For the same compound, the EC50 (Androgen receptor [4]) was 32 nM.

Work on `CC(C)(O)C(=O)Nc1ccc([N+](=O)[O-])c(C(F)(F)F)c1O` yielded an IC50 (Androgen receptor [5]) of 15 nM, an EC50 (Androgen receptor [6]) of less than 10000 nM and a Ki (Androgen receptor [3]) of 27 nM.

Compound `CC[C@H]1Cc2cc3c(C(F)(F)F)cc(O)nc3cc2N[C@@H]1C` has an IC50 (Androgen receptor [7]) of less than 10000 nM, a Ki (Androgen receptor [3]) of 11 nM and an EC50 (Androgen receptor [4]) of 9 nM.

`CC[C@H]1Nc2cc3nc(O)cc(C(F)(F)F)c3cc2CC1(CC)CC` gave an IC50 (Androgen receptor [5]) of 48 nM, an EC50 (Androgen receptor [6]) of less than 10000 nM and a Ki (Androgen receptor [3]) of 42 nM.

For `C[C@H]1Nc2cc3nc(O)cc(C(F)(F)F)c3cc2CC1(C)C`, the IC50 (Androgen receptor [5]) was 24 nM, the EC50 (Androgen receptor [6]) was less than 10000 nM and the Ki (Androgen receptor [3]) was 82 nM.

`CC[C@@H]1C[C@H](C)c2cc3c(C(F)(F)F)cc(O)nc3cc2N1` gave an IC50 (Androgen receptor [5]) of 137 nM, a Ki (Androgen receptor [3]) of 21 nM and an EC50 (Androgen receptor [4]) of 119 nM.

Compound `CC[C@@H]1Cc2cc3c(C(F)(F)F)cc(=O)[nH]c3cc2N[C@@H]1C` has an IC50 (Androgen receptor [7]) of less than 10000 nM, a Ki (Androgen receptor [3]) of 15 nM and an EC50 (Androgen receptor [4]) of 10 nM.

For `CC[C@H]1Nc2cc3[nH]c(=O)cc(C(F)(F)F)c3cc2CC1(C)C`, the IC50 (Androgen receptor [5]) was 42 nM, the EC50 (Androgen receptor [6]) was less than 10000 nM and the Ki (Androgen receptor [3]) was 50 nM.

In the case of `CC(C)[C@@H]1CCc2cc3c(C(F)(F)F)cc(=O)[nH]c3cc2N1`, the IC50 (Androgen receptor [5]) is reported as 25 nM, the EC50 (Androgen receptor [6]) is reported as less than 10000 nM and the Ki (Androgen receptor [3]) is reported as 109 nM.

For `CC[C@H]1Nc2cc3nc(O)cc(C(F)(F)F)c3cc2C[C@H]1C`, the IC50 (Androgen receptor [5]) was 15 nM, the Ki (Androgen receptor [3]) was 11 nM and the EC50 (Androgen receptor [4]) was 2470 nM.

`CC[C@H]1Cc2cc3c(C(F)(F)F)cc(=O)[nH]c3cc2N[C@@H]1CC` was tested, and the IC50 (Androgen receptor [7]) was less than 10000 nM, the Ki (Androgen receptor [3]) was 16 nM and the EC50 (Androgen receptor [4]) was 3 nM.

`CC[C@H]1Nc2cc3[nH]c(=O)cc(C(F)(F)F)c3cc2C[C@@H]1C` was tested, and the IC50 (Androgen receptor [5]) was 11 nM, the Ki (Androgen receptor [3]) was 12 nM and the EC50 (Androgen receptor [4]) was 1670 nM.

`C[C@@H]1C[C@H](C)c2cc3c(C(F)(F)F)cc(O)nc3cc2N1` was tested, and the IC50 (Androgen receptor [5]) was 15 nM, the Ki (Androgen receptor [3]) was 6 nM and the EC50 (Androgen receptor [4]) was 59 nM.

Compound `CC[C@@H]1CCc2cc3c(C(F)(F)F)cc(O)nc3cc2N1` has an IC50 (Androgen receptor [5]) of 11 nM and an EC50 (Androgen receptor [6]) of less than 10000 nM.

Compound `CCC[C@@H]1CCc2cc3c(C(F)(F)F)cc(O)nc3cc2N1` has an IC50 (Androgen receptor [5]) of 32 nM, an EC50 (Androgen receptor [6]) of less than 10000 nM and a Ki (Androgen receptor [3]) of 24 nM.

`CC[C@@H]1Cc2cc3c(C(F)(F)F)cc(=O)[nH]c3cc2N[C@@H]1CC` showed an IC50 (Androgen receptor [7]) of less than 10000 nM, a Ki (Androgen receptor [3]) of 29 nM and an EC50 (Androgen receptor [4]) of 20 nM.

`C[C@H]1Cc2cc3c(C(F)(F)F)cc(O)nc3cc2N[C@@H]1C` showed an IC50 (Androgen receptor [5]) of 33 nM, an EC50 (Androgen receptor [6]) of less than 10000 nM and a Ki (Androgen receptor [3]) of 22 nM.

In the case of `C[C@@H]1Cc2cc3c(C(F)(F)F)cc(O)nc3cc2N[C@@H]1C`, the IC50 (Androgen receptor [5]) is reported as 74 nM, the Ki (Androgen receptor [3]) is reported as 15 nM and the EC50 (Androgen receptor [4]) is reported as 34 nM.

In the case of `C[C@@H]1CCc2cc3c(C(F)(F)F)cc(=O)[nH]c3cc2N1`, the IC50 (Androgen receptor [5]) is reported as 19 nM, the Ki (Androgen receptor [3]) is reported as 7 nM and the EC50 (Androgen receptor [4]) is reported as 21 nM.
